In patent EP4670717A1, “PYRROLIDINE-FUSED MYRTANOL DERIVATIVES AS INHIBITORS AND/OR DEGRADERS OF IDO1 UND USE THEREOF” (Max-Planck-Gesellschaft zur Förderung der Wissenschaften …, priority 2024, dated 2025):
Where two headings read alike, the source gives them in different places.

Key:
[1] = target: T1, IDO1 (Homo sapiens, UniProt P14902); experiment: Kyn assay in BxPC-3 cells (Kyn levels after IFN-γ and Trp); format: cell-based; conditions: for activity in the cell-based kynurenine assay: result in words;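 as to all read-outs here: kyn levels expressed relative to DMSO-treated control cells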
T1 construct: BxPC3 cells were seeded in phenol red-free RPMI 1640 medium; endogenous in cells; host or cells: BxPC3 cells stimulated with IFN-γ (50 ng/mL)
T1 sequence (P14902 whole entry): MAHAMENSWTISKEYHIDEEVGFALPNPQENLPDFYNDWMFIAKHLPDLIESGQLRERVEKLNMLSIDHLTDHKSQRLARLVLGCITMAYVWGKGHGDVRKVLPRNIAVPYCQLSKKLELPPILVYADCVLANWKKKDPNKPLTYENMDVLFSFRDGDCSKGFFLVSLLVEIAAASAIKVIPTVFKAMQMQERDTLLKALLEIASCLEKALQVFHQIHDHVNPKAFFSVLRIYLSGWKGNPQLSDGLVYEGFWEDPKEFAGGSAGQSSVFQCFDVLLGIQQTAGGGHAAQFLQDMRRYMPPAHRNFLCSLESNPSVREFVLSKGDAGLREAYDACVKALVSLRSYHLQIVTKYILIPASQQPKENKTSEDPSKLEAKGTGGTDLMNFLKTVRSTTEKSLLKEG
Description: BxPC3 cells were seeded in phenol red-free RPMI 1640 medium in 1536-well or 384-well plates (Greiner #782086, Corning #3770) 24 h prior to the addition of compounds, IFN-γ (50 ng/mL, PeproTech) and L-Trp (380 µM, Sigmal-Aldrich). After 48 h of incubation, first cell viability was accessed by the addition of Hoechst-33342. Afterwards, trichloroacetic acid (TCA, Sigma-Aldrich) was added to a final concentration of 7 % and incubated for 10 min prior to a centrifugation step of 10 min at 1620 × g. Kyn levels were determined by means of the Kyn sensor^7 at a final concentration of 17.5 µM in sensor buffer (50 mM H3PO4 and 120 mM NaCl (pH=1)). Fluorescence intensity (excitation: 535 nm, emission: 595 nm) was measured using a Spectramax Paradigm reader (Molecular Devices). Data were normalized to the values for cells that were treated with DMSO.
For the manual assay, BxPC3 or SKOV3 cells were seeded in clear 96-well or 384-well plates, respectively, 24 h prior to compound treatment and IFN-γ (50 or 5 ng/mL, respectively) and L-Trp (380 µM) addition as described before.^7 48 h after treatment, TCA was added and Kyn levels were detected by means of 2 % w/v of p-DMAB (Ehrlich reagent) in acetic acid as described by Braun et al^29. The absorbance of the Ehrlich reagent was detected at 492 nm and at 650 nm as background control was measured on Spark® multimode microplate plate reader (Tecan, Austria). Kyn levels were determined by subtracting the absorbance value at 650 nm and presented relative to the DMSO control. Dose-response curves and IC50 values were generated and fitted with GraphPad Prism 6.0 (GraphPad software, USA) using four-parameter variable slope non-linear regression curve fit.
Cells were incubated with IFN-γ, Trp and the compounds for 48 h prior to detection of Kyn levels.

[2] = target: T2, recombinant human IDO1 (rhIDO1) (Homo sapiens, UniProt P14902); experiment: IDO1 enzymatic assay with recombinant protein, Kyn detection with p-DMAB; format: biochemical; conditions: pre-incubated with compounds at 37°C for 40 min; for inhibition at 59 µM: in vitro inhibition at 59 uM; for IC50: determined if inhibition at 59 µM was higher than 50%, read-out: rhIDO1 enzymatic activity IC50 ± SD
T2 construct: Full-length rhIDO protein (1 µM) in 50 mM potassium phosphate buffer; GST (cleaved yes); made in house; host or cells: E. coli
T2 sequence (P14902 whole entry): as above
Description: Reduction of the kynurenine level in the cell-based model employed for initial SAR exploration can be due to inhibition of enzymatic activity, degradation of IDO1, or both (Table B-2). In order to differentiate between these different activities, we explored the modes of action of selected compounds in an in vitro assay employing recombinant human IDO1 (rhIDO1) monitoring enzymatic activity only, and we characterized the degradation efficiency by means of Western blotting, determining maximum degradation levels at 0.1µM (Dmax) and half maximum degradation concentration (DC50) (Table B-2). Table B-2 in vitro inhibition and degradation of IDO1 by selected compounds. […] Data are mean values ± SD (n = 4, except for compounds 1, 11, and 19 (n=2)). […] Data are mean values of n biological replicates. Dmax corresponds to maximum levels of IDO1 degradation at 0.1 µM.
Full-length rhIDO protein (1 µM) in 50 mM potassium phosphate buffer (50 mM KH2PO4 and 50 mM K2HPO4, pH 6.5) was incubated with the respective compounds for 40 min at 37 °C prior to the addition of 10 mM ascorbic acid, 10 µM methylene blue, 2 mM Trp and 100 µg/mL catalase (Sigma-Aldrich, C100). Samples were incubated for 60 min followed by the addition of trichloroacetic acid to a final concentration of 7 % and further incubation for 30 min at 37 °C. Kyn levels were detected by the addition of an equal volume of 2 % (w/v) p-DMAB in acetic acid and absorbance was measured at 492 nm and 650 nm as a background control. Values are presented relative to the DMSO control. Dose-response curves and IC50 values were generated and fitted with GraphPad Prism 6.0 (GraphPad software, USA) using four-parameter variable slope non-linear regression curve fit.

[3] = target: T1, IDO1; experiment: IDO1 degradation in BxPC3 cells, IDO1 protein levels by immunoblotting; format: cell-based; conditions: for Dmax at 0.1 µM: BXPC-3, BxPC3 cells; for Dmax at 0.1 µM / Dmax [%] (n): 50 ng/ml IFN-γ 24 h, washout, compound (100 nM) 24 h, maximum IDO1 degradation at 0.1 µM;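 as to all read-outs here: IDO1 bands on Western blots detected with fluorescent dye-labelled secondary antibodies and quantified by band intensity, values are means of n biological replicates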
Description: To analyze IDO1 levels, IFN-γ-stimulated BxPC3 cells (50 ng/mL IFN-γ), U2OS cells (5 ng/mL IFN-γ), HEK^rhIDO1 (HEK293T cells electroporated with rhIDO1), SKOV3 and BT549 cells were treated with compounds for the indicated times (6 h to 24 h) followed by cell lysis (150 mM sodium chloride in 50 mM Tris (pH 8.0) and 1% NP-40 Alternative, protease and phosphatase inhibitors). Protein concentrations were determined (DC protein assay, Bio-Rad) followed by addition of 1 × SDS loading buffer and protein separation by a 10% SDS-PAGE. Separated protein samples were transferred to a polyvinylidene difluoride (PVDF) membrane using a wet-tank blotting system (Bio-Rad). IDO1 as well as vinculin as a loading were detected using the primary antibodies anti-IDO1 (ab211017, abcam or 14-9750-80, Thermo Fisher), anti-vinculin (V9131, Thermo Fisher) and anti-β-actin (ab8227, abcam) in 5 % milk in PBS-buffered saline with 0.05 % (v/v) Tween-20 (PBS-T). Primary antibodies were incubated at 4°C overnight and detected with IRDye-conjugated secondary antibodies (LI-COR Biosciences). IDO1 protein level in BT549 and SKOV3 cells was detected with HRP conjugated secondary antibody and SuperSignal™ West Dura Extended Duration Substrat (Thermo Fisher Scientific). Washing steps were performed with PBS-T. Protein bands were visualized by ChemiDoc™ MP (Bio-Rad) using a fluorescent readout. Band intensities were quantified using Image Lab software.
In order to differentiate between these different activities, we explored the modes of action of selected compounds in an in vitro assay employing recombinant human IDO1 (rhIDO1) monitoring enzymatic activity only, and we characterized the degradation efficiency by means of Western blotting, determining maximum degradation levels at 0.1µM (Dmax) and half maximum degradation concentration (DC50) (Table B-2). […] Data are mean values of n biological replicates. Dmax corresponds to maximum levels of IDO1 degradation at 0.1 µM.

[4] = target: T3, apo-IDO1 (Homo sapiens, UniProt P14902); experiment: Pulse-chase ubiquitination assay of apo-IDO1 by CRL2^KLHDC3; format: biochemical; conditions: apo-IDO1 incubated with compounds (30 µM) for 90 min at 37°C; Fig. 3j
T3 construct: For the ubiquitination assays, IDO1 (residues 5-C) was cloned into a pRSF Duet based vector; His-TEV (N); made in house; host or cells: IDO1: host not restated ('purified as described above', which points to E. coli); KLHDC3-EloB/C: Hi5 insect cells
T3 sequence (P14902 5-403 limits assumed): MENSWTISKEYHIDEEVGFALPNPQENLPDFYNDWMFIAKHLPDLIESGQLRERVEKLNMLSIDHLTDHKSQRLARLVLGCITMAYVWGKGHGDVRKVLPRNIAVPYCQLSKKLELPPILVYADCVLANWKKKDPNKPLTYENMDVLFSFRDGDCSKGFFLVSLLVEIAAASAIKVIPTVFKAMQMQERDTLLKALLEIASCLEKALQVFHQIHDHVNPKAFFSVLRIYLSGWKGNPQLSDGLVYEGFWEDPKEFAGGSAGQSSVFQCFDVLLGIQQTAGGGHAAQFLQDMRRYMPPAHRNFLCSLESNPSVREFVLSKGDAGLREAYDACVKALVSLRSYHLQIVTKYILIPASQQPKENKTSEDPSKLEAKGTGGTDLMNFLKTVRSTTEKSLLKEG

[5] = BxPC-3 cells incubated with IFN-γ, Trp and the compounds for 48 h, read-out: Kyn assay IC50 ± SD

Row | IC50 [1, 5] [nM] | activity in the cell-based kynurenine assay [1] | inhibition at 59 µM [2] [%] | Dmax at 0.1 µM [3] [%] | Dmax [%] (n) ([3]; BxPC3 cells) | IC50 [2] [nM] | IDO1 ubiquitination by CRL2^KLHDC3 [4] | Compound | IC50 ([1]; read-out: IC50 value in the Kyn assay, Kyn assay) [nM] | IC50 ([1]; read-out: Kyn assay IC50 ± SD, BxPC-3 cells incubated with IFN-γ, Trp and the compounds for 48 h) [nM] | DC50 ± SD [nM] ([3]; half-maximal degradation concentration, BxPC3 cells, immunoblotting)
1 | < 200 | low nanomolar range | 48 ± 6 | > 60 | 65 ± 10(14) % | – | – | Cc1cc(C(C)(C)C)ccc1S(=O)(=O)N1C[C@H]2C[C@H]3C[C@H](C3(C)C)[C@@]2(COC(=O)Nc2ccc(I)cc2)C1 [compound 52, ((3aS,4R,6R,7aS)-2-((4-(tert-butyl)-2-methylphenyl)sulfonyl)-5,5-dimethyloctahydro-3aH-4,6-methanoisoindol-3a-yl)methyl (4-iodophenyl)carbamate] | – | – | –
2 | < 200 | – | 37 ± 9 | 55 to 59 | 56 ± 4 (3) % | – | – | CCc1cc(C(C)(C)C)ccc1S(=O)(=O)N1C[C@H]2C[C@H]3C[C@H](C3(C)C)[C@@]2(COC(=O)Nc2ccc(I)cc2)C1 [compound 53, ((3aS,4R,6R,7aS)-2-((4-(tert-butyl)-2-ethylphenyl)sulfonyl)-5,5-dimethyloctahydro-3aH-4,6-methanoisoindol-3a-yl)methyl (4-iodophenyl)carbamate] | – | – | –
3 | < 200 | – | 35 ± 2 | 55 to 59 | 55 ± 4 (3) % | – | – | CC(C)(C)c1ccc(S(=O)(=O)N2C[C@H]3C[C@H]4C[C@H](C4(C)C)[C@@]3(COC(=O)Nc3ccc(I)cc3)C2)c(C2CC2)c1 [compound 54, ((3aS,4R,6R,7aS)-2-((4-(tert-butyl)-2-cyclopropylphenyl)sulfonyl)-5,5-dimethyl-octahydro-3aH-4,6-methanoisoindol-3a-yl)methyl (4-iodophenyl)carbamate] | – | – | –
4 | < 200 | – | 12 ± 7 | 55 to 59 | 56 ± 4 (3) % | – | – | CC(C)(C)c1ccc(S(=O)(=O)N2C[C@H]3C[C@H]4C[C@H](C4(C)C)[C@@]3(COC(=O)Nc3ccc(I)cc3)C2)c(Br)c1 [compound 56, ((3aS,4R,6R,7aS)-2-((2-bromo-4-(tert-butyl)phenyl)sulfonyl)-5,5-dimethyloctahydro-3aH-4,6-methanoisoindol-3a-yl)methyl (4-iodophenyl)carbamate] | – | – | –
5 | < 200 | – | 67 ± 6 | 36 to 46 | 36 ± 2 (3) % | 1900 ± 500 | – | CC(C)(CC(=O)O)c1ccc(S(=O)(=O)N2C[C@H]3C[C@H]4C[C@H](C4(C)C)[C@@]3(COC(=O)Nc3ccc(I)cc3)C2)cc1 [compound 63, 3-(4-(((3aS,4R,6R,7aS)-3a-((((4-iodophenyl)carbamoyl)oxy)methyl)-5,5-dimethyloctahydro-2H-4,6-methanoisoindol-2-yl)sulfonyl)phenyl)-3-methylbutanoic acid] | – | – | –
6 | < 200 | low nanomolar range | 72 ± 4 | 36 to 46 | 46 ± 21 (5) % | 820 ± 140 | – | CC(C)(C(=O)O)c1ccc(S(=O)(=O)N2C[C@H]3C[C@H]4C[C@H](C4(C)C)[C@@]3(COC(=O)Nc3ccc(I)cc3)C2)cc1 [compound 65, 2-(4-(((3aS,4R,6R,7aS)-3a-((((4-iodophenyl)carbamoyl)oxy)methyl)-5,5-dimethyloctahydro-2H-4,6-methanoisoindol-2-yl)sulfonyl)phenyl)-2-methylpropanoic acid] | – | – | –
7 | < 200 | – | 55 ± 2 | 20 ± 12 | – | 270 ± 20 | – | CC(C)(C(=O)O)c1ccc(S(=O)(=O)N2C[C@H]3C[C@H]4C[C@H](C4(C)C)[C@@]3(COC(=O)Nc3ccc(I)cc3)C2)c(Cl)c1 [compound 69, 2-(3-chloro-4-(((3aS,4R,6R,7aS)-3a-((((4-iodophenyl)carbamoyl)oxy)methyl)-5,5-dimethyloctahydro-2H-4,6-methanoisoindol-2-yl)sulfonyl)phenyl)-2-methylpropanoic acid] | – | – | –
8 | < 200 | – | 62 ± 1 | 18 ± 19 | – | 110 ± 20 | – | Cc1cc(C(C)(C)C(=O)O)ccc1S(=O)(=O)N1C[C@H]2C[C@H]3C[C@H](C3(C)C)[C@@]2(COC(=O)Nc2ccc(I)cc2)C1 [compound 70, 2-(4-(((3aS,4R,6R,7aS)-3a-((((4-iodophenyl)carbamoyl)oxy)methyl)-5,5-dimethyloctahydro-2H-4,6-methanoisoindol-2-yl)sulfonyl)-3-methylphenyl)-2-methylpropanoic acid] | – | – | –
9 | – | – | 30 ± 5 | 74 ± 13 | – | – | ubiquitinated | C#Cc1ccc(NC(=O)OC[C@]23CN(S(=O)(=O)c4ccc(C(C)(C)C)cc4C)C[C@H]2C[C@H]2C[C@@H]3C2(C)C)cc1 [compound 71, ((3aS,4R,6R,7aS)-2-((4-(tert-butyl)-2-methylphenyl)sulfonyl)-5,5-dimethylocta-hydro-3aH-4,6-methanoisoindol-3a-yl)methyl (4-ethynylphenyl)carbamate] | – | – | –
10 | < 200 | low nanomolar range | 78 ± 3 | 54 ± 8 | – | 310 ± 60 | – | C#Cc1ccc(NC(=O)OC[C@]23CN(S(=O)(=O)c4ccc(C(C)(C)C(=O)O)cc4)C[C@H]2C[C@H]2C[C@@H]3C2(C)C)cc1 [compound 74, 2-(4-(((3aS,4R,6R,7aS)-3a-((((4-ethynylphenyl)carbamoyl)oxy)methyl)-5,5-dimethyloctahydro-2H-4,6-methanoisoindol-2-yl)sulfonyl)phenyl)-2-methylpropanoic acid] | – | – | –

Row | Compound | IC50 [1, 5] [nM] | activity in the cell-based kynurenine assay [1] | inhibition at 59 µM [2] [%] | Dmax at 0.1 µM [3] [%] | Dmax [%] (n) ([3]; BxPC3 cells) | IC50 [2] [nM] | IDO1 ubiquitination by CRL2^KLHDC3 [4] | IC50 ([1]; read-out: IC50 value in the Kyn assay, Kyn assay) [nM] | IC50 ([1]; read-out: Kyn assay IC50 ± SD, BxPC-3 cells incubated with IFN-γ, Trp and the compounds for 48 h) [nM] | DC50 ± SD [nM] ([3]; half-maximal degradation concentration, BxPC3 cells, immunoblotting)
11 | C#Cc1ccc(NC(=O)OC[C@]23CN(S(=O)(=O)c4ccc(C(C)(C)C)cc4CC)C[C@H]2C[C@H]2C[C@@H]3C2(C)C)cc1 [compound 72, ((3aS,4R,6R,7aS)-2-((4-(tert-butyl)-2-ethylphenyl)sulfonyl)-5,5-dimethylocta-hydro-3aH-4,6-methanoisoindol-3a-yl)methyl(4-ethynylphenyl) carbamate] | – | – | 62 ± 5 | – | 75% | – | – | 11 | < 200 | low nanomolar range
